Earlier results on one compound are cited in patent publication US9585967B2, “Nicotine-containing product” (priority 2008, dated 2017).

Molecules are shown by their SMILES.

The conditions of series [1]: in vivo.
The conditions of series [2]: extensive first-pass metabolism.

Regarding `CN1CCC[C@H]1c1cccnc1` [Nicotine, (S)-3-(1-Methyl-2-pyrrolidinyl)pyridine], the “half life in the body” value in series [1] was “around two”. Also, the Oral bioavailability result in series [2] was “about 30%”.
